Data on one compound can be found in US12084472B2 (Ardelyx, Inc., priority 2015, dated 2024).

Marks after values point to notes of the source that are not given here. Where only a bound is given, the exact number is not on record here.

One assay concerns the target T1, human TGR5 (Homo sapiens, UniProt Q8TDU6).
T1 construct: expressed in transfected cells; host or cells: HEK293
T1 sequence (Q8TDU6 1-330): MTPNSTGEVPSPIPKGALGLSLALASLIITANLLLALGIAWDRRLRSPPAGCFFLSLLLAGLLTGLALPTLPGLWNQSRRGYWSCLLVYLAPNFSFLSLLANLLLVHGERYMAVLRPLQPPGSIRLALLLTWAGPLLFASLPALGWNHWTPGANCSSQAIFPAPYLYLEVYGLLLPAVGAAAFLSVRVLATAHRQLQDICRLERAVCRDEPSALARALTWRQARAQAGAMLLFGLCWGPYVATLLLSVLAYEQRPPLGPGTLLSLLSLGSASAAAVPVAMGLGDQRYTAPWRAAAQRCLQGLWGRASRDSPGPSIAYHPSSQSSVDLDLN
The assay is described as follows: Cell-based TGR5 assay (cAMP generation, HTRF). To be noted: HEK293 cells stably transfected with human TGR5; cAMP by HTRF; 30 minutes at 37° C.; read-out: pEC50 Human TGR5 (converted). A digest of the protocol: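 First, compounds in 3-fold serial dilution were placed in HBSS with 10 mM HEPES pH 7.4 and 0.5 mM IBMX. Next, human TGR5-expressing HEK293 cells were added and incubated 30 min at 37° C. Finally, cAMP was detected by HTRF and pEC50 derived by logistic fitting.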
(In TR-FRET formats the signal depends on donor and acceptor labels being close together.)

Another assay relates to small intestine transit. The assay is described as follows: Intestinal motility independent of gastric emptying (carmine red dye front). It counts as in vivo, C57BL/6 male mice. To be noted: I-389 30 mg/kg PO; dye infused via duodenal catheter 1 h later; 15 min; vs vehicle; FIG. 6. The procedure: Seven-eight week old C57BL/6 male mice were acclimated for four days. Mice were then divided into 2 groups and fasted for 2-1/2 h, followed by a PO dose (10 mL/kg) of vehicle (10% 2-hydroxypropyl-β-cyclodextrin [HPCD] in 10 mM PBS containing 0.1% tween 80; HPCD/tween 80) or I-389 30 mg/kg. One hour later, carmine red (6% in sterile water; 100 μL/mouse) dye was infused via the duodenal catheter and mice were euthanised fifteen min after that. The entire length of the small intestine and the distance from the stomach to the dye front in the small intestine was measured and used to calculate the percentage of the small intestine the dye front had travelled during the 15 min timeframe.

Assay [1] deals with Western diet (WD)-fed mice. Put plainly: Mouse model of NAFLD and mild diabetes, Western diet (WD)-fed mice: glucose, insulin, liver lipids, GLP levels. It counts as in vivo, C57BL/6 male mice. The procedure: Seven week old C57BL/6 male mice were housed 5/cage. Two cages of mice were put on normal chow (Harlan Teklad 2018), and the remaining cages of mice were put on WD (Harlan Teklad, TD.88137, […]/0.2% cholesterol) to induce NAFLD. After 10 weeks, mice were weighed and fasted for 4 h. Blood was collected to measure fasting glucose levels, processed to plasma for measurement of insulin, triglycerides and total cholesterol. This process was repeated on Day 29 of treatment. Based on body weight and fasted glucose and insulin levels, mice were divided into 5 treatment groups (n=10/group), Table 20. […] Mice were weighed twice weekly throughout the study. On the last day of the study (Day 30, 8 hours after food removal), mice were euthanized. Blood was collected in tubes with inhibitors to block DPP-4 activity and processed to plasma for measurement of liver enzymes and GLP levels using an Ace Alera clinical analyzer and the Multi-Array Assay System from Meso Scale Discovery, respectively. The entire liver was collected, weighed, and a sample was taken and weighed for measurement of triglycerides and total cholesterol.
Data for each group are presented as mean±SEM. Statistical analyses were performed using one-way ANOVA followed by Holm-Sidak's multiple comparisons test. For GLP levels, <statistical significance compared to vehicle (WD) is marked as *, P<0.05; **, P<0.01, ***, P<0.001, and ****, P<0.0001; of linagliptin (WD) versus I-389 alone (WD) or linaglptin+I-389 (WD) is marked as †, P<0.05; ††, P<0.01, of †††, P<0.001, and ††††, P<0.0001; and of I-389 (WD) versus linagliptin (WD)+I-389 (WD) is marked as ^, P<0.05; ^ ^P<0.01, ^ ^^P, P<0.001, and ^ ^^^, P<0.0001. For the remaining parameters, statistical significance compared to vehicle (WD) is marked as *, P<0.05; **, P<0.01, ***, P<0.001, and ****, P<0.0001.

As for `CN(CCCCNC(=O)N[C@@H](CO)[C@@H](O)[C@H](O)[C@H](O)CO)S(=O)(=O)c1ccc(Cl)c(COC2(c3cnccc3-c3ccccc3OC3CC3)CC2)c1` [Compound I-389, 1-(4-[N-methyl[4-chloro-3-([1-[4-(2-cyclopropoxyphenyl)pyridin-3-yl]cyclopropoxy]methyl)benzene]sulfonamido]butyl)-3-[(2S,3R,4S,5R)-1,3,4,5,6-pentahydroxyhexan-2-yl]urea], the EC50 at human TGR5 is less than 100 nM. The “percentage the carmine red dye front travelled in the small intestine” value with small intestine transit is given as “statistically significant increase”. Further, in assay [1] (WD-fed mice, Day 30 plasma, I-389 30 mg/kg, linagliptin 10 mg/kg, FIG. 14), the “active GLP-1 levels / release” value is given as “effective at inducing active GLP-1 release”. For the same compound, the “total GLP-1 levels” value in assay [1] (WD-fed mice, Day 30 plasma, I-389 30 mg/kg, linagliptin 10 mg/kg, FIG. 15) is reported as “highly elevated”. Also, the body weight entry in assay [1] (WD-fed mice, data not shown) is “did not significantly affect”. For the same compound, in assay [1] (WD-fed mice, vs vehicle (WD)), the “liver total cholesterol levels (in words)” value is “lowered” and the “liver triglycerides (in words)” value was “lowered”. Also, the Liver weight in assay [1] (Western diet, liraglutide 0.4 mg/kg BID SQ, I-389 30 mg/kg BID PO, linagliptin 10 mg/kg QD PO, mean±SEM, vehicle WD 2.13 ± 0.14) is 1.77 ± 0.09* g. Besides, the 4-h fasted insulin in assay [1] (Western diet, liraglutide 0.4 mg/kg BID SQ, I-389 30 mg/kg BID PO, linagliptin 10 mg/kg QD PO, mean±SEM, vehicle WD 2.3 ± 0.3) was 1.6 ± 0.2* ng/mL. In addition, the Hepatic cholesterol in assay [1] (Western diet, liraglutide 0.4 mg/kg BID SQ, I-389 30 mg/kg BID PO, linagliptin 10 mg/kg QD PO, mean±SEM, vehicle WD 8.56 ± 0.25) is listed as 7.24 ± 0.41** mg/g. In addition, in assay [1] (Western diet, liraglutide 0.4 mg/kg BID SQ, I-389 30 mg/kg BID PO, linagliptin 10 mg/kg QD PO, mean±SEM, vehicle WD 145.40 ± 14.80), the Hepatic triglycerides is recorded as 87.82 ± 13.77*** mg/g. Besides, the 4-h fasted glucose in assay [1] (Western diet, liraglutide 0.4 mg/kg BID SQ, I-389 30 mg/kg BID PO, linagliptin 10 mg/kg QD PO, mean±SEM, vehicle WD 239 ± 13) was 178 ± 7** mg/dL.
